Reference: patent US20240124610A1, “METHODS FOR TREATING HER2-NEGATIVE OR HER2-LOW CANCER” (Washington University, priority 2022, published 2024)
Entries after “also recorded” stand apart in the source; their conditions may differ.

Assays:
[1] = system: HER2/HER3 signaling in ZR-75-1 cells; experiment: Western blot of HER3/AKT signaling in lapatinib-treated cells (FIG. 29D); format: cell-based; design: dose or concentration left out as unconfirmed; conditions: ZR-75-1 cells expressing full length BCAR4 or gene fusions
Experimental: Antibodies against FLAG (2368S; RRID:AB_2217020, 1:1000; Cell Signaling Technology), actin (3700S; RRID:AB_2242334, 1:10,000; Cell Signaling Technology), Goat anti-mouse or anti-rabbit peroxidase-conjugated secondary antibodies (Thermo Fisher Scientific) were used for experiments. Protein samples were prepared with ice-cold RIPA lysis buffer (25 mmol/L Tris pH7.5, 1% NP40, 0.1% SDS, 150 mmol/L NaCl, 0.5% sodium deoxycholate, and 1× Halt Protease Inhibitor Cocktail; Thermo Fisher Scientific). Lysate was subjected to a short sonication and then clarified by centrifugation at maximum speed, 4° C. for 10 minutes. Protein concentration was determined with the DC Protein Assay (BioRad). Samples were diluted in loading buffer, boiled, and equal protein concentrations (20-30 mg) loaded and resolved by SDS-polyacrylamide gel electrophoresis in 12% or 4% to 12% Bolt Bis-Tris precast gels (Invitrogen). Gels were transferred at 60° C. for 1 hour to a nitrocellulose membrane (BioRad). Proteins were detected with specific antibodies and visualized and quantified on the ChemDoc MP Imaging System (BioRad) using secondary antibodies and Clarity Western ECL Substrate (Thermo Fisher Scientific).

[2] = system: BCAR4-expressing cells; experiment: Cell growth under lapatinib treatment (FIG. 42); format: cell-based; conditions: BCAR4-expressing cells treated with lapatinib
From the text: In breast cancer HER3 preferentially binds to HER2 to form a heterodimer.

[3] = system: ZR751 cells overexpressing BCAR4 full length or gene fusions; experiment: Cell viability under lapatinib treatment (FIG. 24); format: cell-based; conditions: ZR751 cells overexpressing BCAR4 full length or gene fusions vs control cells without BCAR4, increased lapatinib
[4] = system: patients expressing BCAR4; conditions: letrozole (AI treatment); public data GSE41994; FIG. 39; cited from earlier work
[5] = system: breast cancer patients; experiment: Survival analysis of tamoxifen-treated breast cancer patients by BCAR4 expression; format: in vivo, human
From the text: FIG. 25 is a survival curve showing BCAR4-positive patients (blue) have worse outcome when treated with tamoxifen in accordance with the present disclosure.
BCAR4+ is categorized as the top 20% and BCAR4− as the bottom 80%.

[6] = system: MCF7 (ER+/HER2-negative) cells expressing full length BCAR4 or LITAF-BCAR4 gene fusion; experiment: Tamoxifen treatment of BCAR4-overexpressing breast cancer cells (FIG. 37); format: cell-based; conditions: in vitro
From the text: FIG. 37 is a graph showing BCAR4 gene fusion-expressing cells are resistance to Tamoxifen treatment in breast cancer in accordance with the present disclosure. MCF7 (ER+/HER2-negative) overexpressing cell lines expressing full length BCAR4 (B4) or LITAF-BCAR4 gene fusion (LB) were used.
BCAR4 gene fusion-expressing cells are resistant to Tamoxifen treatment in breast cancer (see e.g., FIG. 37). It is known that full length BCAR4 is resistant to tamoxifen therapy, but no one has shown that BCAR4 gene fusions cause resistance. BCAR4-fusions express only the 4th exon of BCAR4 gene.

With `CS(=O)(=O)CCNCc1ccc(-c2ccc3ncnc(Nc4ccc(OCc5cccc(F)c5)c(Cl)c4)c3c2)o1` [lapatinib] the “phosphorylation of HER3 and downstream activation of AKT” value [1] was “attenuated these changes; also recorded: inhibited”, the “phosphorylation of HER3 and downstream activation of AKT” value ([1]; listed as Lapatinib) was “lose HER3 activation” and the cell growth [2] was “decreased growth”. For the same molecule, the cell viability [3] was “decreased cell viability”.
In the case of `N#Cc1ccc(C(c2ccc(C#N)cc2)n2cncn2)cc1` [letrozole], the “Progression Free Survival of top 25% of patients expressing BCAR4” value [4] is listed as “worse Progression Free Survival”.
For `CC/C(=C(\c1ccccc1)c1ccc(OCCN(C)C)cc1)c1ccccc1` [tamoxifen], the “outcome of BCAR4-high patients” value ([5]; tamoxifen only treatment, TCGA cohort (n=186), FIG. 35) was “worse outcomes”, the “distant metastasis free survival of BCAR4-high patients” value ([5]; tamoxifen treatment, GSE6532 cohort, FIG. 36) was “worse distant metastasis free survival” and the “outcome of early stage BCAR4-positive vs BCAR4-negative patients” value ([5]; tamoxifen, microarray data of early-stage breast cancer patients, FIG. 25) was “poor outcome”. The “response to Tamoxifen treatment” value [6] was “resistant”.
